Laboratory results as given in patent publication US4485239A, “2-(2,6-Dimethyl-3,5-diethoxycarbonyl-1,4-dihydropyridine-4-carboxamide glutaric acid its disodium salt and method of their preparation” (priority 1982, dated 1984).
Structures can show the parent of a compound that is named as a salt. Where two headings read alike, the source gives them in different places.

Legend:
[1] = tested on: arrythmogenic and lethal effects of calcium chloride; experiment: Antagonism towards the arrhythmogenic and lethal effects of calcium chloride in mice (ECG); format: in vivo
Procedure: (§1) In the experiments on white mice narcotized with urethane ECGs were recorded in the second standard lead. A 2% solution of calcium chloride was injected into the tail vein at a constant rate (00.1 ml during 2 seconds).

[2] = tested on: experimental models of arrhythmia; experiment: Antiarrhythmic activity on experimental models of arrhythmia (calcium, aconitic and strophanthin), overall; format: in vivo, mice, rats, guinea pigs; details: for antiarrhythmic activity: in vivo
Procedure: The action of 2-(2,6-dimethyl-3,5-diethoxycarbonyl-1,4-dihydropyridine-4-carboxamide) glutaric acid and its disodium salt on the cardiovascular system was studied in experiments with mice, rats, guinea pigs and cats. […] Antiarrhythmic agents such as quinidine and novocaine amide (procaine amide) were used for comparisons in the […] study.
as §1
(§2) Comparative study of the antiarrhythmic activity of the compounds on an aconitic model of arrhythmia was carried out on albino rats narcotized with urethane and chloralose (intraperitoneally), ECGs were recorded in the second standard lead.
Guinea pigs were narcotized with urethane and chloralose then strophanthin was administered in them, and against the background of arrhythmia, the above compound was administered intravenously. The doses of the compound, that arrest the strophanthin arrhythmia in the guinea pigs were recorded.

Solubility in water = format: physicochemical
white mice = experiment: in vivo; details: intraperitoneal
Text: (§3) Acute toxicity was investigated on mongrel white mice of both sexes (Table 2).

in vivo = details: mouse, in vivo, ip
Text: as §3

Aconitic arrhythmia = experiment: Antiarrhythmic activity on aconitic model of arrhythmia in rats; format: in vivo, albino rats; details: for ED50: Rattus norvegicus, ip, read-out: ED50, aconitic arrhythmia in rats (average effective antiarrhythmic dose)
Procedure: as §2

Strophanthin arrhythmia = experiment: Arrest of strophanthin arrhythmia in guinea pigs; format: in vivo; details: for ED50: Cavia porcellus, read-out: ED50, strophanthin arrhythmia in guinea pigs
cardiovascular system = experiment: Acute experiments in narcotized cats: arterial pressure, respiration, ECG and haemodynamic effects of acetyl choline; format: in vivo
Procedure: In acute experiments with cats narcotized with chloralose and urethane arterial pressure, respiration and ECG were recorded. The influence of the above comound on the arterial pressure, respiration, and on the haemodynamic effects of acetyl choline were investigated. Anaqueous solution of the compound was administered intravenously.

cardiac arrhythmia = details: cited from earlier work; for antiarrhythmic activity / effect on arterial pressure (side-effect): medical practice; for antiarrhythmic activity / effect on arterial pressure (side-effect) / toxicity: prior art
[3] = compound dose 3 mg/kg intraperitoneally
[4] = compound dose 6 mg/kg intraperitoneally
[5] = compound dose 10 mg/kg intraperitoneally
[6] = guinea pigs, intravenous, against background of arrhythmia
[7] = strophanthin arrhythmia, guinea pigs
[8] = cats, intravenous, 0.1-0.2 g/kg
[9] = compound dose 30 mg/kg intraperitoneally

SMILES | antiarrhythmic activity [2] | solubility in water (Solubility in water) | Dose of CaCl2, arrhythmogenic [1, 3] [mg/kg] | Dose of CaCl2, lethal [1, 3] [mg/kg] | Dose of CaCl2, arrhythmogenic [1, 5] [mg/kg] | Dose of CaCl2, lethal [1, 5] [mg/kg] | LD50 (in vivo) [mg/kg] | ED50 (Aconitic arrhythmia) [mg/kg] | ED50 (Strophanthin arrhythmia; [6]) [mg/kg] | antiarrhythmic activity (cardiac arrhythmia) | effect on arterial pressure (side-effect) (cardiac arrhythmia) | toxicity (cardiac arrhythmia) | further results
CCOC(=O)C1=C(C)NC(C)=C(C(=O)OCC)C1C(=O)NC(CCC(=O)O)C(=O)O (stereo not shown) [Compound of formula I, 2-(2,6-dimethyl-3,5-diethoxycarbonyl-1,4-dihydropyridine-4-carboxamide) glutaric acid] | pronouncedantiarrhythmic activity | hardly soluble in water | – | – | – | – | – | – | – | – | – | – | antiarrhythmic effect compared with novocaine amide ([1]; novocaine amide dose 30 mg/kg, CaCl2 model, mice): same antiarrhythic effect as novocaine amide in a dose of 30 mg/kg
CCOC(=O)C1=C(C)NC(C)=C(C(=O)OCC)C1C(=O)NC(CCC(=O)O)C(=O)O (stereo not shown) [Compound of formula II, disodium salt of 2-(2,6-dimethyl-3,5-diethoxycarbonyl-1,4-dihydropyridine-4-carboxamide) glutaric acid] | pronounced antiarrhythmic activity | well soluble in water | 98.4 | 105.0 | 130.5 | 140.5 | > 2000 | 3 ± 0.5 | 2.1 ± 0.3 | – | – | – | Dose of CaCl2, arrhythmogenic [1, 4]: 127.4 mg/kg; Dose of CaCl2, lethal [1, 4]: 134.5 mg/kg; effect on arrhythmogenic and lethal doses of calcium chloride ([1]; preliminary administration 20-30 minutes prior to narcosis, mice): considerably increases; toxicity relative to novocaine amide (white mice; mice): 1/17; toxicity relative to quinidine (white mice; mice): 1/12; antiarrhythmic activity compared with quinidine and novocaine amide (Aconitic arrhythmia; aconitic model, rats, intraperitoneal 30-40 minutes before aconitine): higher antiarrhythmic activity than quinidine and novocane amide; activity on experimental models of arrhythmia compared with quinidine and novocaine amide ([2]; calcium, aconitic and strophanthin models): higher activity on all kinds of experimental models of arrhythmia; effect on experimental strophanthin arrhythmia (Strophanthin arrhythmia; guinea pig, in vivo): stable effect; activity compared with quinidine (Strophanthin arrhythmia; [7]): not inferior to quinidine; activity relative to novocaine amide (Strophanthin arrhythmia; [7]): approximately 25 fold; change in arterial pressure (cardiovascular system; [8]): does not cause any significant change; change in pulse rate (cardiovascular system; [8]): does not cause any significant change; change in respiration rate (cardiovascular system; [8]): does not cause any significant change; response reaction to acetyl choline (cardiovascular system; cats, intravenous, doses of up to 4 mg/kg): does not reduce the response reaction to acetyl choline; drop of the arterial pressure (cardiovascular system; intravenous application): does not cause a drastic drop of the arterial pressure
CCN(CC)CCNC(=O)c1ccc(N)cc1 [Novocaine amide, reference compound] | – | – | – | – | 116.0 | 120.0 | 290 | 45 ± 5 | 55 ± 7.3 | insufficient antiarrthythmic activity | drastically reduce the arterial pressure | toxic | Dose of CaCl2, arrhythmogenic [1, 9]: 127.0 mg/kg; Dose of CaCl2, lethal [1, 9]: 138.0 mg/kg
C=C[C@H]1C[N@@]2CC[C@H]1C[C@@H]2[C@@H](O)c1ccnc2ccc(OC)cc12 [Quinidine, reference compound] | – | – | 126.9 | 136.0 | 120.8 | 133.5 | 156 | 4.3 ± 0.6 | – | insufficient antiarrthythmic activity | drastically reduce the arterial pressure | toxic | Acute toxicity, LD50 (white mice; white mice, confidence limit at P = 0.05): 156 mg/kg; effect on strophanthin arrhythmia, in clinic (cardiac arrhythmia; clinic): in some cases is ineffective; ED50 (Strophanthin arrhythmia; iv): 2.3 ± 0.4 mg/kg
